According to patent US20150080380A1, “Therapeutic Uses” (GLAXOSMITHKLINE INTELLECTUAL PROPERTY DEVELOPMENT LIMITED, priority 2012, published 2015):
Where a name gives a salt, the structure may show the parent alone.

System: OPC differentiation
Assay: Oligodendrocyte precursor cell (OPC) differentiation assay (MBP immunocytochemistry)
Format: cell-based, rat
Settings: for EC50: Rattus norvegicus, Oligodendrocyte precursor cell, 96 h, 0.3 nM-10 uM, 4 days, FIG. 1, read-out: EC50, promotion of OPC differentiation (MBP+ population); for effect on OPC differentiation: all concentrations (0.3 nM-10 uM), FIG. 1b
Protocol: The effects of small-molecule inverse agonists and neutral antagonists of histamine receptor 3 (H3R) on OPC differentiation were determined using the following assay.
The enriched OPC were obtained from dissecting 2-d-old rat pups forebrain. The pups were anesthetized and decapitated. Then the skull was cut with microdissecting scissors and the cortex was taken out with Dumont forceps. The meninges were removed with fine tips. After repeated trituration of the cortex through cell strainer, cells were re-suspended with the culture media consisted of DMEM supplemented with 20% Fetal bovine serum (Invitrogen, Carlsbad, Calif.), glutamine (4 mM, (Invitrogen), and plated onto poly-D-lysine (PDL, […] for 1 h, Sigma, St. Louis, Mo.)-coated T75 flasks. The resulting cultures were fed with fresh culture media twice per week and almost all the neurons will die due to the high concentration of serum in one week. Then the mixed glial cells were subjected to a series shake-off procedure to obtain pure OPCs two weeks later. Specifically, the mixed glial cells were shaken initially for 1 hour at 100 rpm to remove microglia and shaken for 20-22 hours at 37° C. at 200 rpm to enrich OPCs. OPCs were collected by centrifugation at 1200 rpm for 5 min, re-suspended in basal chemically defined medium (BDM). BDM consisted of DMEM supplemented with N2 medium (100×, Invitrogen), glutamine (4 mM, Invitrogen), BSA (0.1 mg/ml, Sigma), hydrocortisone (20 nM, Sigma), selenium (30 nM, Sigma) and biotin (10 nM, Sigma). OPCs were plated on poly-ornithine (PO, 50 μg/ml for 1 hr, Sigma)-coated culture dishes and maintained in BDM supplemented with bFGF (10 ng/ml, Invitrogen) and PDGF (10 ng/ml, PeproTech, Rocky Hill, N.J.) before experimental manipulation. OPCs were 95% pure judged by A2B5+ staining.
To initiate OPC differentiation, OPCs were firstly treated with 0.05% Trypsin/EDTA, and seeded into PO-coated 384-mini well plate at a density of 2,000 to 5,000 cells/well. Each test compound was dissolved in DMSO at the concentration of 10 mM for the assay. Compounds at different concentrations (full dose curve, 0.3 nM-10 uM) were added into the OPC culture in duplicates with Echo machine (Thermo, Waltham, Mass.). OPCs were cultured in BDM supplemented with N-acetyl-L-cystenine (30 μM, Sigma) to differentiate into mature oligodendrocytes for 4 days. BDM comprise DMEM (Invitrogen), N2 (100×, Invitrogen), L-Glu (50×, Invitrogen), Sodium Pyruvate (100×, Invitrogen), BSA (0.1%, Sigma), Biotin (10 nM, Sigma), hydrocortisone (10 nM, Sigma). The resulting cultures were fixed with 4% polyformaldehyde (Sigma) and samples were blocked with the blocking buffer (Donkey Serum 3%, Sigma; Triton X-100 0.04%, Sigma). Then fixed cells were incubated in primary antibodies (anti-myelin basic protein, MBP antibody, 600× dilution in blocking buffer) overnight at 4° C., washed thoroughly with PBS and then incubated with Alexa 488-labeled secondary antibody (Molecular Probes, Invitrogen) for 2 h at R.T; then washed thoroughly with PBS and stained with Dapi (1 ug/ml, Sigma),
The full-plate immunocytochemistry staining was read by an automatic image-based analysis system-Cellomics (Thermo) and the raw data for each well was acquired as percentage of MBP+ population as follows: Pictures of eight fields per well were captured and analyzed quantitatively; the well data is the average of 8 fields. The intensity of anti-MBP staining in the cytosol was used as the criteria of positive objects. The threshold of positive objects was set based on the average intensity of the positive control well, for which triiodothyronine (15 nM) was used. Then the data was analyzed and presented as fold change of the number of the vehicle control well. Graphs were generated by softwares: Microsoft Excel and IDBS XL fits. The curve fitting was performed with software XL fits to derive EC50 of the positive compounds.
All data except FIG. 1 are given as mean±standard error of the mean (SEM). […]

| EC50 [nM] | Structure (SMILES) | effect on OPC differentiation |
| --- | --- | --- |
| 250 | C[C@@H]1CCCN1CCCOc1ccc(-c2ccc(=O)[nH]n2)cc1 [Example compound 7, (R)-6-(4-(3-(2-methylpyrrolidin-1-yl)propoxy)phenyl)pyridazin-3(2H)-one, reference compound] | – |
| – | c1nc(CCCC2CCNCC2)c[nH]1 [Example compound 5, 4-[3-(1H-Imidazol-4-yl)propyl]piperidine dihydrobromide, reference compound] | didn't show any effect |
| – | c1ccc(COCCCc2cnc[nH]2)cc1 [Example compound 4, 4-[3-(Phenylmethoxy)propyl]-1H-imidazole oxalate, reference compound] | didn't show any effect |
| 14 | Clc1ccc(CCCOCCCN2CCCCC2)cc1 [Example compound 6, 1-(3-(3-(4-chlorophenyl)propoxy)propyl)piperidine, reference compound] | – |
| 31 | CC(C)N1CCC(OC2CCN(c3ccc(C#N)cc3)CC2)CC1 [Example compound 3, 4-(4-((1-isopropylpiperidin-4-yl)oxy)piperidin-1-yl)benzonitrile hydrochloride] | – |

| Structure (SMILES) | EC50 [nM] | effect on OPC differentiation |
| --- | --- | --- |
| N=C(NCc1ccc(Cl)cc1)SCCCc1c[nH]cn1 [Example compound 8, 3-(1H-imidazol-4-yl)propyl 4-chlorobenzylcarbamimidothioate dihydrobromide, reference compound] | 48 | – |
